Source: PubChem BioAssay AID2060627 (Molecular Pharmacology Branch, DTP, NCI, 2025)
pIC50: −log10 of the molar value.

Test system: 156681-154-R-J1-PDC complex spheroid viability
Assay: Anticancer human tumor 156681-154-R-J1-PDC patient-derived melanoma cell line growth inhibition [CLK]
Conditions: for pIC50: curve of first compound; for viability, T/C: stronger effect = lower value
Excerpt: A high-throughput screen of multi-cell type tumor spheroids was designed to identify active combinations of […] and targeted small molecules. Complex spheroids include a stromal component modeled by human endothelial cells (HUVEC) and fibroblasts modeled by human mesenchymal stem cells (MSCs). The concentration ranges selected for each drug and investigational agent were based upon clinically achievable concentrations if the clinical Cmax of the agent was known.
Compounds. The drugs and investigational agents: cirtuvivint (SM08502; NSC835563), CC-671 (NSC850746), vemurafenib (NSC761431), tapotoclax (NSC804041), sotorasib (NSC818433), adagrasib (NSC831453), MRTX-1133 (NSC836407), BAY2416964 (NSC825713), copanlisib (NSC816437), inavolisib (NSC800729), abemaciclib (NSC768073), osimertinib (NSC779217), entinostat (NSC756642), eltanexor (KPT-8602, NSC794443), venetoclax (NSC766270), ceralasertib (NSC777638), bortezomib (NSC756655), olaparib (NSC753686), talazoparib (NSC767125), alisertib (NSC759677), peposertib (NSC802822), gemcitabine (NSC613327), 5-fluorouracil (NSC19893), SN-38 (NSC673596), oxaliplatin (NSC266046), paclitaxel (NSC125973), and doxorubicin (NSC123127), were obtained from the National Cancer Institute (NCI) Developmental Therapeutics Program Chemical Repository. The FDA-approved anticancer drug set is available from the Developmental Therapeutics Program at https://dtp.cancer.gov/organization/dscb/obtaining/available plates.htm. […] The stock solutions were prepared in dimethyl sulfoxide (DMSO, Sigma-Aldrich, St. Louis, MO, cat. D2650), except for the platinum complexes which were prepared in saline (Quality Biological, Gaithersburg, MD, cat. 114-055-101), at 800-fold the tested concentration and stored at -70 degrees C prior to their use. All drugs and investigational agents were tested over a range starting from a high concentration at or near the clinical Cmax and decreasing in half-log increments. If the clinical Cmax for an agent had not been determined, the highest concentration tested was 10 microM.
Cell Culture. All cells were maintained in an incubator at 37 degrees C and 5% CO2 with 95% humidity. The PDC lines were cultured according to standard operating procedures established by the NCI PDMR. Briefly, all PDCs were thawed and cultured in Matrigel-coated flasks prepared with a working solution of 1X Ham's F-12 nutrient mix, without supplementation (Invitrogen, Waltham, MA, cat. 11765054), 100 U/mL penicillin-streptomycin (Invitrogen, cat. 15140122), and 2.5% Matrigel (Corning Inc., Corning, NY, cat. 354248) for the first three passages. The 947758-054-R-J2-PDC line was cultured in 6B/Colon 1A media, which includes advanced DMEM/F-12 (Thermo Fisher Scientific, cat. 12634028), 10 mM HEPES (Thermo Fisher Scientific, cat. 15630080), 1X GlutaMAX supplement (Thermo Fisher Scientific, cat. 35050061), 0.1 mg/mL primocin (InvivoGen, cat. ant-pm-2), 10% defined fetal bovine serum, heat inactivated (HyClone Laboratories Inc., cat. SH30070.03HI), 1.25 mM N-Acetyl-L-cysteine (Sigma-Aldrich, cat. A9165), 10 mM nicotinamide (Sigma-Aldrich, cat. N0636), 1X B-27 supplement (Thermo Fisher Scientific, cat. 17504044), 1X N-2 supplement (Thermo Fisher Scientific, cat. 17502048), and 10 microM Y-27632 dihydrochloride (Tocris Bioscience, cat. 1254). The 876862-298-R-J1-PDC was cultured in 6E media, which includes all 6B/Colon 1A media components plus 50% L-WRN conditioned media (ATCC, cat. CRL-3276), 50 ng/mL recombinant human EGF recombinant protein (hEGF; Thermo Fisher Scientific, cat. PHG0311), 10 ng/mL recombinant human fibroblast growth factor 10 (hGFG-10; PeproTech, cat. 100-26), 1 ng/mL recombinant human fibroblast growth factor 2 (hFGF-2; PeproTech, cat. 100-18B), and 1 µM prostaglandin E2 (PGE2; Tocris, cat. 2296). The 227483-062-R1-J1-PDC line was cultured in Panc media, containing all 6E components except hFGF-2, with the addition of 500 nM SB-431542 (Selleckchem, cat. S1067) and 10 nM gastrin (Tocris, cat. 3006). […]

[1] = second compound 0.0316 µM, first compound 0.0316 µM
[2] = second compound 0.0316 µM, first compound 0.1 µM
[3] = second compound 0.0316 µM, first compound 0.316 µM
[4] = second compound 0.0316 µM, first compound 1 µM
[5] = second compound 0.0316 µM, first compound 3.16 µM
[6] = second compound 0.0316 µM, first compound 10 µM
[7] = second compound 0.1 µM, first compound 0.0316 µM
[8] = second compound 0.1 µM, first compound 0.1 µM
[9] = second compound 0.1 µM, first compound 0.316 µM
[10] = second compound 0.1 µM, first compound 1 µM
[11] = second compound 0.1 µM, first compound 3.16 µM
[12] = second compound 0.1 µM, first compound 10 µM
[13] = second compound 0.316 µM, first compound 0.0316 µM
[14] = second compound 0.316 µM, first compound 0.1 µM
[15] = second compound 0.316 µM, first compound 0.316 µM
[16] = second compound 0.316 µM, first compound 1 µM
[17] = second compound 0.316 µM, first compound 3.16 µM
[18] = second compound 0.316 µM, first compound 10 µM
[19] = second compound 1 µM, first compound 0.0316 µM
[20] = second compound 1 µM, first compound 0.1 µM
[21] = second compound 1 µM, first compound 0.316 µM
[22] = second compound 1 µM, first compound 1 µM
[23] = second compound 1 µM, first compound 3.16 µM
[24] = second compound 1 µM, first compound 10 µM
[25] = second compound 3.16 µM, first compound 0.0316 µM
[26] = second compound 3.16 µM, first compound 0.1 µM
[27] = second compound 3.16 µM, first compound 0.316 µM
[28] = second compound 3.16 µM, first compound 1 µM
[29] = second compound 3.16 µM, first compound 3.16 µM
[30] = second compound 3.16 µM, first compound 10 µM
[31] = second compound 10 µM, first compound 0.0316 µM
[32] = second compound 10 µM, first compound 0.1 µM
[33] = second compound 10 µM, first compound 0.316 µM
[34] = second compound 10 µM, first compound 1 µM
[35] = second compound 10 µM, first compound 3.16 µM
[36] = second compound 10 µM, first compound 10 µM
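Also: spheroids exposed to the agents for seven days.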
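For viability, T/C in this document: 100% = DMSO vehicle control viability.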

For CC(Nc1ccc2c(c1)OCCn1cc(N3C(=O)OCC3C(F)F)nc1-2)C(N)=O (stereo unspecified) + CNC(=O)c1ccc(Nc2nc(OC3CCCC3)c3c(-c4ccc5nc(C)oc5c4)c[nH]c3n2)c(OC)c1, the pIC50 (second compound 0.0316 µM) was 6.34, the pIC50 (second compound 0.1 µM) was 6.40 and the pIC50 (second compound 0.316 µM) was 7.31. The pIC50 (second compound 1 µM) was over 7.50, the pIC50 (second compound 3.16 µM) was over 7.50 and the pIC50 (second compound 10 µM) was over 7.50. It also gave a viability, T/C [1] of 76.8%, a viability, T/C [2] of 61% and a viability, T/C [3] of 44.5%. It also gave a viability, T/C [4] of 53.9%, a viability, T/C [5] of 33.1% and a viability, T/C [6] of 23.1%. For the same compound, the viability, T/C [7] was 49.9%, the viability, T/C [8] was 64.9% and the viability, T/C [9] was 47.7%. It also gave a viability, T/C [10] of 43%, a viability, T/C [11] of 26.4% and a viability, T/C [12] of 19.2%. The viability, T/C [13] was 52.7%, the viability, T/C [14] was 47% and the viability, T/C [15] was 34.1%. It also gave a viability, T/C [16] of 27.9%, a viability, T/C [17] of 24.6% and a viability, T/C [18] of 15.8%. The viability, T/C [19] was 47.5%, the viability, T/C [20] was 30% and the viability, T/C [21] was 28.1%. The viability, T/C [22] was 24.3%, the viability, T/C [23] was 19.3% and the viability, T/C [24] was 8.72%. For the same compound, the viability, T/C [25] was 48.3%, the viability, T/C [26] was 36.1% and the viability, T/C [27] was 27.2%. It also gave a viability, T/C [28] of 18.9%, a viability, T/C [29] of 10.7% and a viability, T/C [30] of 8.42%. The viability, T/C [31] was 33.4%, the viability, T/C [32] was 29.9% and the viability, T/C [33] was 18.1%. For the same compound, the viability, T/C [34] was 17.7%, the viability, T/C [35] was 13.9% and the viability, T/C [36] was 7.86%.

COc1c(OCCCN2CCOCC2)ccc2c3n(c(=NC(=O)c4cnc(N)nc4)nc12)CCN3 + CNC(=O)c1ccc(Nc2nc(OC3CCCC3)c3c(-c4ccc5nc(C)oc5c4)c[nH]c3n2)c(OC)c1 showed a pIC50 (second compound 0.0316 µM) of 7.76, a pIC50 (second compound 0.1 µM) of 7.99 and a pIC50 (second compound 0.316 µM) of 8.15. It also gave a pIC50 (second compound 1 µM) of 8.47, a pIC50 (second compound 3.16 µM) of over 8.50 and a pIC50 (second compound 10 µM) of over 8.50. The viability, T/C (second compound 0.0316 µM, first compound 0.00316 µM) was 74.4%, the viability, T/C (second compound 0.0316 µM, first compound 0.01 µM) was 64.8% and the viability, T/C [1] was 33.8%. The viability, T/C [2] was 17.3%, the viability, T/C [3] was 2.95% and the viability, T/C [4] was 0.22%. For the same compound, the viability, T/C (second compound 0.1 µM, first compound 0.00316 µM) was 50.5%, the viability, T/C (second compound 0.1 µM, first compound 0.01 µM) was 56.1% and the viability, T/C [7] was 33.5%. The viability, T/C [8] was 18.5%, the viability, T/C [9] was 2.54% and the viability, T/C [10] was 0.32%. It also gave a viability, T/C (second compound 0.316 µM, first compound 0.00316 µM) of 61.2%, a viability, T/C (second compound 0.316 µM, first compound 0.01 µM) of 44.2% and a viability, T/C [13] of 27.9%. For the same compound, the viability, T/C [14] was 13.3%, the viability, T/C [15] was 4.38% and the viability, T/C [16] was 3.9%. The viability, T/C (second compound 1 µM, first compound 0.00316 µM) was 50.8%, the viability, T/C (second compound 1 µM, first compound 0.01 µM) was 37.3% and the viability, T/C [19] was 18.8%. For the same compound, the viability, T/C [20] was 6.93%, the viability, T/C [21] was 1.63% and the viability, T/C [22] was 0.35%. The viability, T/C (second compound 3.16 µM, first compound 0.00316 µM) was 47.6%, the viability, T/C (second compound 3.16 µM, first compound 0.01 µM) was 35.5% and the viability, T/C [25] was 19.9%. It also gave a viability, T/C [26] of 6.45%, a viability, T/C [27] of 1.23% and a viability, T/C [28] of 0.32%. For the same compound, the viability, T/C (second compound 10 µM, first compound 0.00316 µM) was 49.1%, the viability, T/C (second compound 10 µM, first compound 0.01 µM) was 30.9% and the viability, T/C [31] was 10.6%. It also gave a viability, T/C [32] of 5.7%, a viability, T/C [33] of 1.04% and a viability, T/C [34] of 0.31%.

O=c1[nH]cc(F)c(=O)[nH]1 + CN1CCN(c2cc(C(=O)Nc3cc4cc(-c5cnn(C)c5)ccc4cn3)ccn2)CC1 showed a pIC50 (second compound 0.0316 µM) of 5.12, a pIC50 (second compound 0.1 µM) of 5.33 and a pIC50 (second compound 0.316 µM) of over 7.50. The pIC50 (second compound 1 µM) was over 7.50, the pIC50 (second compound 3.16 µM) was over 7.50 and the pIC50 (second compound 10 µM) was over 7.50. For the same compound, the viability, T/C [1] was 106%, the viability, T/C [2] was 104% and the viability, T/C [3] was 96.2%. The viability, T/C [4] was 113%, the viability, T/C [5] was 74.2% and the viability, T/C [6] was 42%. For the same compound, the viability, T/C [7] was 99.3%, the viability, T/C [8] was 77.6% and the viability, T/C [9] was 83.7%. It also gave a viability, T/C [10] of 84.6%, a viability, T/C [11] of 57.8% and a viability, T/C [12] of 34.9%. It also gave a viability, T/C [13] of 17.3%, a viability, T/C [14] of 21.2% and a viability, T/C [15] of 21.1%. The viability, T/C [16] was 20.9%, the viability, T/C [17] was 20.4% and the viability, T/C [18] was 16.1%. It also gave a viability, T/C [19] of 0.17%, a viability, T/C [20] of 1.7% and a viability, T/C [21] of 0.17%. For the same compound, the viability, T/C [22] was 1.14%, the viability, T/C [23] was 3.07% and the viability, T/C [24] was 0.39%. The viability, T/C [25] was 0.09%, the viability, T/C [26] was 3.26% and the viability, T/C [27] was 2.64%. It also gave a viability, T/C [28] of 0.08%, a viability, T/C [29] of 3.66% and a viability, T/C [30] of 5.79%. It also gave a viability, T/C [31] of 0.09%, a viability, T/C [32] of 1.51% and a viability, T/C [33] of 0.76%. The viability, T/C [34] was 2.73%, the viability, T/C [35] was 1.68% and the viability, T/C [36] was 3.54%.
